Each block holds one compound with its values, some of them ahead of it.
Assays:
Type in all cases: functional
Rattus norvegicus [1] = assay: Hepatoprotective activity against thioacetamide-induced toxicity in various levels of serum ALP in rats was evaluated at 10 mg/kg dose (p.o. x 7 days)
Rattus norvegicus [2] = assay: Hepatoprotective activity against thioacetamide-induced toxicity in various levels of serum GOT in rats was evaluated at 10 mg/kg dose (p.o. x 7 days)
Rattus norvegicus [3] = assay: Hepatoprotective activity against thioacetamide-induced toxicity in various levels of serum GPT in rats was evaluated at 10 mg/kg dose (p.o. x 7 days)
Rattus norvegicus [4] = species on record: Rattus norvegicus; assay: Percent protection afforded by the compound in serum alkaline phosphatase (APL) level was determined; design: concentration or dose not given beside the values
Rattus norvegicus [5] = species on record: Rattus norvegicus; assay: Percent protection afforded by the compound in serum glutamate oxaloacetate transaminase (GOT) level was determined; design: concentration or dose not given beside the values
Rattus norvegicus [6] = species on record: Rattus norvegicus; assay: Percent protection afforded by the compound in serum glutamate pyruvate transaminase (GPT) level was determined; design: concentration or dose not given beside the values

Compound: COC(=O)c1c(SC)cc(-c2ccc(Cl)cc2)cc1-c1ccc([N+](=O)[O-])cc1
- Enzyme level (Rattus norvegicus [1]; route oral): 289.9 U l-1
- Enzyme level (Rattus norvegicus [2]; route oral): 229.4 U l-1
- Enzyme level (Rattus norvegicus [3]; route oral): 270.4 U l-1
- Protection (Rattus norvegicus [4]): 24%
- Protection (Rattus norvegicus [5]): 5%
- Protection (Rattus norvegicus [6]): 44%

Compound: COC(=O)c1c(SC)cc(-c2ccc(Cl)cc2)cc1-c1cccc([N+](=O)[O-])c1
- Enzyme level (Rattus norvegicus [1]; route oral): 203.6 U l-1
- Enzyme level (Rattus norvegicus [2]; route oral): 149.9 U l-1
- Enzyme level (Rattus norvegicus [3]; route oral): 190.1 U l-1
- Protection (Rattus norvegicus [4]): 60%
- Protection (Rattus norvegicus [5]): 64%
- Protection (Rattus norvegicus [6]): 70%

Compound: COC(=O)c1c(SC)cc(-c2ccc(Br)cc2)cc1-c1ccc(Br)cc1
- Enzyme level (Rattus norvegicus [1]; route oral): 324.2 U l-1
- Enzyme level (Rattus norvegicus [2]; route oral): 202.1 U l-1
- Enzyme level (Rattus norvegicus [3]; route oral): 295.4 U l-1
- Protection (Rattus norvegicus [4]): 10%
- Protection (Rattus norvegicus [5]): 25%
- Protection (Rattus norvegicus [6]): 36%

Compound: COC(=O)c1c(SC)cc(-c2ccc(F)cc2)cc1-c1ccc(Cl)c(Cl)c1
- Enzyme level (Rattus norvegicus [1]; route oral): 235.5 U l-1
- Enzyme level (Rattus norvegicus [2]; route oral): 159.3 U l-1
- Enzyme level (Rattus norvegicus [3]; route oral): 186.3 U l-1
- Protection (Rattus norvegicus [4]): 46%
- Protection (Rattus norvegicus [5]): 57%
- Protection (Rattus norvegicus [6]): 71%

Compound: COC(=O)c1c(SC)cc(-c2ccc(Cl)cc2)cc1-c1ccc(Cl)cc1
- Enzyme level (Rattus norvegicus [1]; route oral): 268.2 U l-1
- Enzyme level (Rattus norvegicus [2]; route oral): 186.3 U l-1
- Enzyme level (Rattus norvegicus [3]; route oral): 248.5 U l-1
- Protection (Rattus norvegicus [4]): 33%
- Protection (Rattus norvegicus [5]): 37%
- Protection (Rattus norvegicus [6]): 51%

Compound: COC(=O)c1c(SC)cc(-c2ccc(F)cc2)cc1-c1ccc(F)cc1
- Enzyme level (Rattus norvegicus [1]; route oral): 341.2 U l-1
- Enzyme level (Rattus norvegicus [2]; route oral): 229.1 U l-1
- Enzyme level (Rattus norvegicus [3]; route oral): 370.2 U l-1
- Protection (Rattus norvegicus [4]): 3%
- Protection (Rattus norvegicus [5]): 5%
- Protection (Rattus norvegicus [6]): 12%

Compound: COC(=O)c1c(SC)cc(-c2ccc(Cl)cc2)cc1-c1ccc(F)cc1
- Enzyme level (Rattus norvegicus [1]; route oral): 334.2 U l-1
- Enzyme level (Rattus norvegicus [2]; route oral): 222.3 U l-1
- Enzyme level (Rattus norvegicus [3]; route oral): 392.3 U l-1
- Protection (Rattus norvegicus [4]): 6%
- Protection (Rattus norvegicus [5]): 10%
- Protection (Rattus norvegicus [6]): 5%

- Protection (Rattus norvegicus [4]): 52%
- Protection (Rattus norvegicus [5]): 64%
- Protection (Rattus norvegicus [6]): 61%
Compound: SILYMARIN
- Enzyme level (Rattus norvegicus [1]): 220 U l-1
- Enzyme level (Rattus norvegicus [2]): 150 U l-1
- Enzyme level (Rattus norvegicus [3]): 218 U l-1

Compound: COC(=O)c1c(SC)cc(-c2ccc(F)cc2)cc1-c1cccc([N+](=O)[O-])c1
- Enzyme level (Rattus norvegicus [1]; route oral): 307.2 U l-1
- Enzyme level (Rattus norvegicus [2]; route oral): 208.9 U l-1
- Enzyme level (Rattus norvegicus [3]; route oral): 360.1 U l-1
- Protection (Rattus norvegicus [4]): 17%
- Protection (Rattus norvegicus [5]): 20%
- Protection (Rattus norvegicus [6]): 15%

Compound: COC(=O)c1c(SC)cc(-c2ccc(F)c(Cl)c2)cc1-c1cccc([N+](=O)[O-])c1
- Enzyme level (Rattus norvegicus [1]; route oral): 304.1 U l-1
- Enzyme level (Rattus norvegicus [2]; route oral): 211.6 U l-1
- Enzyme level (Rattus norvegicus [3]; route oral): 370.2 U l-1
- Protection (Rattus norvegicus [4]): 18%
- Protection (Rattus norvegicus [5]): 18%
- Protection (Rattus norvegicus [6]): 12%

Compound: COC(=O)c1c(SC)cc(-c2ccc(Cl)cc2)cc1-c1ccc(Cl)c(Cl)c1
- Enzyme level (Rattus norvegicus [1]; route oral): 245.1 U l-1
- Enzyme level (Rattus norvegicus [2]; route oral): 147.3 U l-1
- Enzyme level (Rattus norvegicus [3]; route oral): 258.1 U l-1
- Protection (Rattus norvegicus [4]): 42%
- Protection (Rattus norvegicus [5]): 66%
- Protection (Rattus norvegicus [6]): 49%

Compound: COC(=O)c1c(SC)cc(-c2ccc(Cl)cc2)cc1-c1ccc(Br)cc1
- Enzyme level (Rattus norvegicus [1]; route oral): 330.2 U l-1
- Enzyme level (Rattus norvegicus [2]; route oral): 208.3 U l-1
- Enzyme level (Rattus norvegicus [3]; route oral): 361.5 U l-1
- Protection (Rattus norvegicus [4]): 8%
- Protection (Rattus norvegicus [5]): 20%
- Protection (Rattus norvegicus [6]): 15%

— ChEMBL document CHEMBL1131277, “Functionalized 1,3-teraryls as a new class of hepatoprotectants. Part V” (1998)
